Measurements: US7141397B2, “Method of preparing a guanosine-group compound and an intermediate thereof” (Yuki Gosei Kogyo Co., Ltd., priority 2000, dated 2006)

Experiment: Solubility of guanine and glyoxal-guanine in water (HPLC of liquid layer)
Format: physicochemical
Conditions: for solubility to water: general statement, no temperature given; for Solubility at each temperature: water, stirred 1 hour
Description: An excess amount of each compound was suspended in water, stirred for 1 hour at each temperature and left for a while. The liquid layer was analyzed with HPLC equipped with a UV detector, under the conditions described below.
Conditions of the HPLC analysis:
Column: Superiorex ODS (manufactured by Shiseido)
Eluent: 0.1 M ammonium dihydrogenphosphate solution: methanol=97:3 (v/v)

Row | Compound | solubility to water | Solubility at each temperature (30° C.) | Solubility at each temperature (40° C.) | Solubility at each temperature (50° C.) [mg/kg] | Solubility at each temperature (60° C.) [mg/kg]
1 | O=c1c2nc[nH]c2nc2n1C(O)C(O)N2 (stereo not shown) [Glyoxal-guanine, 6,7-dihydro-6,7-dihydroxyimidazo[1,2-a]purine-9(3H)-one] | soluble to water | 200 mg/kg | 275 mg/kg | 330 | 440
2 | Nc1nc2nc[nH]c2c(=O)[nH]1 [Guanine, guanine] | does not exceed a few ppm | ≤ 2 or mg/kg | ≤ 2 or mg/kg | 2 | 2
